According to patent publication US20250186408A1, “TREATMENT OF PHARMACORESISTANT EPILEPSY” (Katholieke Universiteit Leuven, priority 2021, published 2025):
Like-named read-outs stand apart in the source and are kept apart here.

Columns and labels:
[1] = Intrinsic clearance (liver microsomes); type: in vitro ADME; details: pooled liver microsomes, pH 7.4, human liver microsomes
Source text: In vitro ADME profiling of compounds was done by Eurofins Panlabs Inc (St Charles, MO, USA) using their ADME-Tox service (Cat Ref P375, Tier 1 ADME Panel). […] (28). The atom-based log P calculation method, called OsirisP, uses as an increment system and adds contributions of every atom based on its atom type. The prediction engine distinguishes a total of 368 atom types and was optimized using a training set of more than 5000 molecules with experimentally determined log P values. The free prediction engine has proven to outperform many alternative calculation methods (29).
Metabolic stability of the test compounds was evaluated in pooled liver microsomes from human species. Test compounds were pre-incubated with liver microsomes in phosphate buffer (pH 7.4) in a 37° C. shaking water bath for 5 min and an NADPH-generating system was added to initiate the reaction. Samples were collected at time points of 0, 15, 30, 45 and 60 min and extracted with acetonitrile/methanol. After centrifugation, the supernatants were analysed by HPLC-MS/MS. T1/2 was calculated from the slope of the line obtained by plotting the natural logarithmic percentage (Ln %) of the test compound remaining in the reaction mixture vs. incubation time (min). CLint (μL/min/mg protein) was calculated from T1/2 using following equation: […]

EDNRA = molecular target: T1, EDNRA (Homo sapiens, UniProt P25101); experiment: Calcium Flux EDNRA Agonist; type: cell-based; details: for EC50: read-out: RC50, result type EC50; for Emax: read-out: Max response
T1 sequence (P25101 21-427): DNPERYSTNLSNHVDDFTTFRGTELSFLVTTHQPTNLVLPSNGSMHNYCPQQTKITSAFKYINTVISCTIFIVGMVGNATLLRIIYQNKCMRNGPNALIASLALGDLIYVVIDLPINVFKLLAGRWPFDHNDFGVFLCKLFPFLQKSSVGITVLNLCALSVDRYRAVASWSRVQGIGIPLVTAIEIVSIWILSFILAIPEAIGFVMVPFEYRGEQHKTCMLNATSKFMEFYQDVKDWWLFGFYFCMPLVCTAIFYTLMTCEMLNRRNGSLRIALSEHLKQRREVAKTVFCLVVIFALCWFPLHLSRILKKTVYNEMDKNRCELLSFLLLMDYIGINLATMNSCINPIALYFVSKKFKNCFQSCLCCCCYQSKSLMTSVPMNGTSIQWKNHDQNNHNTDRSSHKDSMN
Description: (§1) (≤0.2% DMSO concentration). Assays were performed in 1× dye loading buffer consisting of 1× Dye (DiscoverX, Calcium No Wash^PLUS kit, Catalog No. 90-0091), 1× Additive A and 2.5 mM Probenecid in HBSS/20 mM HEPES. Probenecid was prepared fresh. Prior to testing, media was aspirated from cells and replaced with 25 μL dye loading buffer. Cells were incubated for 45 min at 37° C. and then 20 min at RT. For agonist determination, 25 μL of 2× compound in HBSS/20 mM HEPES was added using a FLIPR Tetra (MDS). […] 25 μL of 2× sample was added and cells were incubated for 30 min at RT in the dark to equilibrate plate temperature. After incubation, antagonist determination was initiated by addition of 25 μL of 1× compound with 3×EC80 agonist using FLIPR. For both agonist and antagonist formats, activity was measure on a FLIPR Tetra (MDS). Calcium mobilization was monitored for 2 min with a 5 sec baseline read.
(§2) FLIPR read—Area under the curve, was calculated for the entire 2 min read.

ADORA2A = ADORA2A (Homo sapiens, UniProt P29274); experiment: Calcium Flux ADORA2A Antagonist; type: cell-based; details: for IC50: read-out: RC50, result type IC50; for Emax: read-out: Max response
Description: as §1, §2

AChE = molecular target: T2, AChE (Homo sapiens, UniProt P22303); experiment: Enzymatic AChE Inhibitor; type: biochemical; details: for IC50: read-out: RC50, result type IC50; for Emax: read-out: Max response
T2 construct: purchased R&D Systems
Description: (§3) Enzyme preparations were sourced from various vendors-AChE (R&D Systems), COX1 and COX2 (BPS Bioscience), MAOA (Sigma), PDE3A and PDE4D2 (Signal Chem). AChE: enzyme and test compound were pre-incubated for 15 min at RT before substrate addition. Acetylthiocholine and DTNB were added and incubated at RT for 30 min. Signal was detected by measuring absorbance at 405 nm. COX1 and COX2: enzyme stocks were diluted in assay buffer (40 mM Tris-HCl, 1×PBS, 0.5 mM Phenol, 0.01% Tween 20 and 10 nM Hematin) and allowed to equilibrate with compounds at RT for 30 min (binding incubation). Arachidonic acid (1.7 μM) and Ampliflu Red (2.5 μM) were prepared and dispended into a reaction plate. Plates were read immediately on a fluorimeter with the emission detection at 590 nm and excitation wavelength 544 nm. MAOA: enzyme and test compound were pre-incubated for 15 min at 37° C. before substrate addition. The reaction was initiated by addition of kynuramine and incubated at 37° C. for 30 min. The reaction was terminated by addition of NaOH. The amount of 4-hydroquinoline formed was determined through spectrofluorometric readout with the emission detection at 380 nm and excitation wavelength 310 nm. PDE3A and PDE4D2: enzyme and test compound were pre-incubated for 15 min at RT before substrate addition. cAMP substrate (at a concentration equal to EC80) was added and incubated at RT for 30 min. Enzyme reaction was terminated by addition of 9 mM IBMX. Signal was detected using the HitHunter® cAMP detection kit. Microplates were transferred to a PerkinElmer Envision™ instrument and read out as described for each assay. […] For enzyme activity assays, percentage inhibition was calculated using the following equation: […]

COX1 = molecular target: T3, COX1 (Homo sapiens, UniProt P23219); experiment: Enzymatic COX1 Inhibitor; type: biochemical; details: for IC50: read-out: RC50, result type IC50; for Emax: read-out: Max response
T3 construct: purchased BPS Bioscience
Description: as §3

CNR2 = CNR2 (Homo sapiens, UniProt P34972); experiment: cAMP CNR2 Antagonist; details: for Emax: read-out: Max response
Description: In vitro pharmacological profiling of compounds was done against 78 functional assays for 47 common off-targets (30) by Eurofins DiscoverX Corporation (Fremont, CA, USA) using their SAFETYscan E/IC50 ELECT service (Cat Ref 87-1003DR, Safety47 Panel Dose Response). […] Compounds were tested in a range of 10 concentrations, following a 3-fold serial dilution, starting from 10 μM.
cAMP Hunter cell lines were expanded from freezer stocks. Prior to testing, cells were seeded in a total volume of 20 μL into white walled 384-well microplates and incubated at 37° C. cAMP modulation was determined using the DiscoverX HitHunter cAMP XS+ assay. For Gs agonist determination, cells were incubated with sample to induce response. For Gi agonist determination, cells were incubated with sample in the presence of EC80 forskolin to induce response. For both conditions, media was aspirated from cells and replaced with 15 μL 2:1 HBSS/10 mM HEPES:cAMP XS+ Ab reagent. Intermediate dilution of sample stocks was performed to generate 4× sample in assay buffer (containing 4×EC80 forskolin in the case of antagonist determination). 5 μL of 4× sample was added to cells and incubated at 37° C. or room temperature (RT) for 30 or 60 min. Final assay vehicle concentration was 1%. For antagonist determination, cells were pre-incubated with sample followed by agonist challenge at the EC80 concentration. Media was aspirated from cells and replaced with 10 μL 1:1 HBSS/HEPES:cAMP XS+ Ab reagent. 5 μL of 4× compound was added to the cells and incubated at 37° C. or RT for 30 min. 5 μL of 4×EC80 agonist was added to the cells and incubated at 37° C. or RT for 30 or 60 min. For Gi coupled GPCRs, EC80 forskolin was included. […] Microplates were read following signal generation with a PerkinElmer Envision™ instrument for chemiluminescent signal detection. Compound activity was analyzed using CBIS data analysis suite (ChemInnovation, CA). For Gs agonist mode assays, percentage activity was calculated using the following equation:

[2] = Calcium Flux ADORA2A Antagonist

T3 sequence (P23219 24-599): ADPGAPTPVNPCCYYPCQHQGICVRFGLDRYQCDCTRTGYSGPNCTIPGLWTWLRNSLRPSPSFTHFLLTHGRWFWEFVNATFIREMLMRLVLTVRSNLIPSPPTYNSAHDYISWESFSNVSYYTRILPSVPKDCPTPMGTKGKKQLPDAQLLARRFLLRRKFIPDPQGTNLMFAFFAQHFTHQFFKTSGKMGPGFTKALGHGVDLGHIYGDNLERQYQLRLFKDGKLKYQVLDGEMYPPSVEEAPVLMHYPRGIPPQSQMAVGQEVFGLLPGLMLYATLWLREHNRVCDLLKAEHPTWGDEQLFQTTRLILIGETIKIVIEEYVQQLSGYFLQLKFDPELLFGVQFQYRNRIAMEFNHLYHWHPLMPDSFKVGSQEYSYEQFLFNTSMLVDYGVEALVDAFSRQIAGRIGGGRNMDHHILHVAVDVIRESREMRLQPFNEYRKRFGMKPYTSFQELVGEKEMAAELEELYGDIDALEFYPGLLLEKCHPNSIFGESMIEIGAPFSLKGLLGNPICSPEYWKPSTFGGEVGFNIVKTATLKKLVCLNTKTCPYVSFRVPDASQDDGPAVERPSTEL
Sequence of CNR2 (P34972 whole entry): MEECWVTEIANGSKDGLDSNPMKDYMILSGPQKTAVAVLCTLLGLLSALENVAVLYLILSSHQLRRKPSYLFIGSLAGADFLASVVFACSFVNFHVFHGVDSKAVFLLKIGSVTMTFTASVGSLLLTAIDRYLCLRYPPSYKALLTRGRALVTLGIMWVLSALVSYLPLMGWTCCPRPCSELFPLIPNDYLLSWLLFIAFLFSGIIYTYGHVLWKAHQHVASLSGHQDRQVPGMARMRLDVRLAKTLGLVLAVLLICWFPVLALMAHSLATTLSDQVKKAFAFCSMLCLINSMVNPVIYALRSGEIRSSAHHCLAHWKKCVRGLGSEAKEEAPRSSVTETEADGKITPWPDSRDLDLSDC
T2 sequence (P22303 32-614): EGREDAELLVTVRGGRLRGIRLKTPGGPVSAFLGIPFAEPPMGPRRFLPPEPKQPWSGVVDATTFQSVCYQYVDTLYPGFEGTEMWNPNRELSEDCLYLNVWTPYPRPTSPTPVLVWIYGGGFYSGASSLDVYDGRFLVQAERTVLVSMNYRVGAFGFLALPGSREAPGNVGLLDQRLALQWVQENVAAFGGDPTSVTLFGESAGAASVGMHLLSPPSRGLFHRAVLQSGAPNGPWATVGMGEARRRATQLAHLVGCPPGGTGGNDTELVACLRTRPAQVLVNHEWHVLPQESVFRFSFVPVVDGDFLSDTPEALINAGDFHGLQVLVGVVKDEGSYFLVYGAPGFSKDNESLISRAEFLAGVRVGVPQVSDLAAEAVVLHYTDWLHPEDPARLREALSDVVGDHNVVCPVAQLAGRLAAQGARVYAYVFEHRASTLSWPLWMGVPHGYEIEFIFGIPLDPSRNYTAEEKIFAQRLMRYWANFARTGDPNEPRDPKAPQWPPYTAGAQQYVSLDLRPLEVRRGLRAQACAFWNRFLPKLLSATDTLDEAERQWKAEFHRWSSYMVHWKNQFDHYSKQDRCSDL
Sequence of ADORA2A (P29274 whole entry): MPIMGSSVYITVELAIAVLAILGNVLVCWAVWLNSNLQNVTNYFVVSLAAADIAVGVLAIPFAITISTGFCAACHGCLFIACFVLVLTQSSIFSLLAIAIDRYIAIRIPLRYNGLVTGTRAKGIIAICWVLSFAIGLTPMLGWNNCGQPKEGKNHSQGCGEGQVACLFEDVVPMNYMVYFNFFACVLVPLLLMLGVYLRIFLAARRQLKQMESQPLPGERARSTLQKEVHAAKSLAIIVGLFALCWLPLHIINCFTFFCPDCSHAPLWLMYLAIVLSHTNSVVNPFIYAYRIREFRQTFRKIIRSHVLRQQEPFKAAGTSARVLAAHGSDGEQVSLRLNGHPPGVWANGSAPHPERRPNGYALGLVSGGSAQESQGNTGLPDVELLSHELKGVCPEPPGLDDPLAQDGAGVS

CC(C)(C)c1ccc(C#CC(O)c2ccccc2)cc1 (racemic) [Compound 3.3, rac-3-(4-(tert-butyl)phenyl)-1-phenylprop-2-yn-1-ol]
half-life at 100 nM [1]: 19 min | microsomal CLint at 100 nM [1]: 381 µL/min/mg | EC50 (EDNRA; Calcium Flux EDNRA Agonist): > 10 µM | Emax (EDNRA): 0% | IC50 (ADORA2A; [2]): > 10 µM | Emax (ADORA2A): 0% | IC50 (AChE; Enzymatic AChE Inhibitor): > 10 µM | Emax (AChE): 3.8% | IC50 (COX1; Enzymatic COX1 Inhibitor): > 10 µM | Emax (COX1): 9.9% | IC50 (CNR2): > 10 µM | Emax (CNR2): 38.3%

Clc1cccc(C#Cc2n[nH]c3ncccc23)c1 [Compound 10.1, 3-((3-chlorophenyl)ethynyl)-1H-pyrazolo[3,4-b]pyridine]
half-life at 100 nM [1]: 10 min | microsomal CLint at 100 nM [1]: 748 µL/min/mg | Emax (EDNRA; Calcium Flux EDNRA Agonist): 1.8% | EC50 (EDNRA; Calcium Flux EDNRA Agonist): > 10 µM | Emax (ADORA2A; [2]): 0% | IC50 (ADORA2A; [2]): > 10 µM | Emax (AChE; Enzymatic AChE Inhibitor): 1.3% | IC50 (AChE; Enzymatic AChE Inhibitor): > 10 µM | Emax (COX1; Enzymatic COX1 Inhibitor): 0% | IC50 (COX1; Enzymatic COX1 Inhibitor): > 10 µM | IC50 (CNR2): > 10 µM | Emax (CNR2): 0%
